Source: the kinase profiling compilation of Christmann-Franck et al. (2016)
Several values for one entry are separate records, joined by “and”; a condition that tells them apart may be missing. Equal values may be shown once.

How the values were obtained:
Experiment in all cases: radiometric filter-binding kinase assay, Kinase HotSpot
Conditions in all cases: compound 0.5 µM; ATP 10 µM
[1] = biological target: ACVR1 (human) (UniProt Q04771)
[2] = biological target: ADRBK1 (human) (UniProt P25098)
[3] = biological target: BTK (human) (UniProt Q06187)
[4] = biological target: CAMKK1 (human) (UniProt Q8N5S9)
[5] = biological target: CDC42BPB (human) (UniProt Q9Y5S2)
[6] = biological target: CDK4 CCND3 (human) (UniProt P30281+P11802)
[7] = biological target: CLK1 (human) (UniProt P49759)
CLK1 (human), sequence (P49759 whole entry, looked up): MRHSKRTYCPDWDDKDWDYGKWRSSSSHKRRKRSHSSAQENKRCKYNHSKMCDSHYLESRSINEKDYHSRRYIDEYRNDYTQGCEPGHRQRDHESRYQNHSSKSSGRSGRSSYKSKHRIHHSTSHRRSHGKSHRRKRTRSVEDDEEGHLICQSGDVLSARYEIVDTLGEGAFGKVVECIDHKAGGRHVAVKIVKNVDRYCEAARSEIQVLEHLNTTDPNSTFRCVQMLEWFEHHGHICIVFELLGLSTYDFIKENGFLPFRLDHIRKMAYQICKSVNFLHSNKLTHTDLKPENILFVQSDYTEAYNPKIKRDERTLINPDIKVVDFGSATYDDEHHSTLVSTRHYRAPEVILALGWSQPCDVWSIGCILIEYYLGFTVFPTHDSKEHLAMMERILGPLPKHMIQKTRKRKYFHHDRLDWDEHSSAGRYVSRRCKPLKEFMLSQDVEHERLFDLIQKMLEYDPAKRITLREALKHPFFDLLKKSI

[8] = biological target: CSNK1G1 (human) (UniProt Q9HCP0)
[9] = biological target: DDR2 (human) (UniProt Q16832)
[10] = biological target: DMPK (human) (UniProt Q09013)
[11] = biological target: DYRK2 (human) (UniProt Q92630)
[12] = biological target: ERBB4 (human) (UniProt Q15303)
[13] = biological target: FGFR2 (human) (UniProt P21802)
[14] = biological target: GRK4 (human) (UniProt P32298)
[15] = biological target: HIPK1 (human) (UniProt Q86Z02)
[16] = biological target: ITK (human) (UniProt Q08881)
ITK (human), sequence (Q08881 whole entry, looked up): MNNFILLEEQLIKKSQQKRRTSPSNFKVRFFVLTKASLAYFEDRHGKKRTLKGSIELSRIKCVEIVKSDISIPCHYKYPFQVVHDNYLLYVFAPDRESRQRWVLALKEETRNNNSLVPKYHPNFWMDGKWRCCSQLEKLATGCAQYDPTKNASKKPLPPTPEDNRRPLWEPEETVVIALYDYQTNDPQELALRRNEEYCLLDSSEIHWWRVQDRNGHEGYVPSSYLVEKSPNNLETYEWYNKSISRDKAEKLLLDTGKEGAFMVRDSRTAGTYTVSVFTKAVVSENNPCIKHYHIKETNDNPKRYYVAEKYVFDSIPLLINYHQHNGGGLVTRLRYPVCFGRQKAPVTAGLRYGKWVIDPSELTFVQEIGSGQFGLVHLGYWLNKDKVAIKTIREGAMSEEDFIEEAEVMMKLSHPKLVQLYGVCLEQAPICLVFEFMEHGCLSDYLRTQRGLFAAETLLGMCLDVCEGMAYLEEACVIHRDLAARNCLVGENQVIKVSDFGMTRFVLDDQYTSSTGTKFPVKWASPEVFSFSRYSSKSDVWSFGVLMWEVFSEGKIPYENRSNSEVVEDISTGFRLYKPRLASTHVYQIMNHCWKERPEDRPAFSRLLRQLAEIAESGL

[17] = biological target: LIMK1 (human) (UniProt P53667)
[18] = biological target: LYN (human) (UniProt P07948)
[19] = biological target: MAP3K7 TAB1 (human) (UniProt O43318+Q15750)
MAP3K7 TAB1 (human), sequence (O43318 whole entry, looked up): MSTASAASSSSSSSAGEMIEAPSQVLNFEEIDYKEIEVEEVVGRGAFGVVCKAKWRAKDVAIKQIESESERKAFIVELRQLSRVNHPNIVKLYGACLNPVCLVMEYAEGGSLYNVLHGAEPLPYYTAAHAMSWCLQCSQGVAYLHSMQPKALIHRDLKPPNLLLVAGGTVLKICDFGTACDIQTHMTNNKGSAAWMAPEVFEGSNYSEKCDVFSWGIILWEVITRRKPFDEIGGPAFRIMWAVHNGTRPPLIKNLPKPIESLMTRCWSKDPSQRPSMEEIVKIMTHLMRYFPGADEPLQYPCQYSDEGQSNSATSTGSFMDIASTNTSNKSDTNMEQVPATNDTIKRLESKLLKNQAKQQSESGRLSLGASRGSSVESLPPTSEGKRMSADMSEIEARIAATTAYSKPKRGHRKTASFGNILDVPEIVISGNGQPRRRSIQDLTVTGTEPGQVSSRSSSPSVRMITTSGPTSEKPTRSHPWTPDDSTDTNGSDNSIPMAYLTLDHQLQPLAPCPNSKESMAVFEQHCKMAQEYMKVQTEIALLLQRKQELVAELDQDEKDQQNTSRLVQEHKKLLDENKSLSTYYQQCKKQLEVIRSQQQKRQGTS
MAP3K7 TAB1 (human), sequence (Q15750 whole entry, looked up): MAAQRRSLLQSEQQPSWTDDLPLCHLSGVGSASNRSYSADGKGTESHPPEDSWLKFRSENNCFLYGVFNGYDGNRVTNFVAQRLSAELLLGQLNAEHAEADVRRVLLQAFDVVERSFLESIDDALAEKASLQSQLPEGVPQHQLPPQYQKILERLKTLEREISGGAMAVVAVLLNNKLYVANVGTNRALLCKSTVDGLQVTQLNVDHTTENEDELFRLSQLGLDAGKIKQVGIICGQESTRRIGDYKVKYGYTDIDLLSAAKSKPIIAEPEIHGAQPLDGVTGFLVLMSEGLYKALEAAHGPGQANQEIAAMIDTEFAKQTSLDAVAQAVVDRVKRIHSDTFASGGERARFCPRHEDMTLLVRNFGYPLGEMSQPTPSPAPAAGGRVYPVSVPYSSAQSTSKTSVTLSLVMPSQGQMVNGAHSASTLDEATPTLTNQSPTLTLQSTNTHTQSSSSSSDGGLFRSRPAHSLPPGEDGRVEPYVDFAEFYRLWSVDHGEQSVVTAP

[20] = biological target: MAPK10 (human) (UniProt P53779)
[21] = biological target: MAPK9 (human) (UniProt P45984)
MAPK9 (human), sequence (P45984 whole entry, looked up): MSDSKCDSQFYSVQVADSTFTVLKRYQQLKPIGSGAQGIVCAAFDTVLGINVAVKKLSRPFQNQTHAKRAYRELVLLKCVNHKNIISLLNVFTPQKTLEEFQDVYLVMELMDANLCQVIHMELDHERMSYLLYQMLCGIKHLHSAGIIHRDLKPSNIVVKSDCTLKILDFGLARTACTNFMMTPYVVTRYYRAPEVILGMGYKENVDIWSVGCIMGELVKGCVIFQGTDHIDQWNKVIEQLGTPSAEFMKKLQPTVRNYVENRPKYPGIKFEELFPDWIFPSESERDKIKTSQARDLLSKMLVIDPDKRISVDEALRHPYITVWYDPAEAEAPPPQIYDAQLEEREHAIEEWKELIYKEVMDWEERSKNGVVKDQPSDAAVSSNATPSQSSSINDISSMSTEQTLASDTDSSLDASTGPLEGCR

[22] = biological target: MYLK2 (human) (UniProt Q9H1R3)
[23] = biological target: NEK4 (human) (UniProt P51957)
NEK4 (human), sequence (P51957 whole entry, looked up): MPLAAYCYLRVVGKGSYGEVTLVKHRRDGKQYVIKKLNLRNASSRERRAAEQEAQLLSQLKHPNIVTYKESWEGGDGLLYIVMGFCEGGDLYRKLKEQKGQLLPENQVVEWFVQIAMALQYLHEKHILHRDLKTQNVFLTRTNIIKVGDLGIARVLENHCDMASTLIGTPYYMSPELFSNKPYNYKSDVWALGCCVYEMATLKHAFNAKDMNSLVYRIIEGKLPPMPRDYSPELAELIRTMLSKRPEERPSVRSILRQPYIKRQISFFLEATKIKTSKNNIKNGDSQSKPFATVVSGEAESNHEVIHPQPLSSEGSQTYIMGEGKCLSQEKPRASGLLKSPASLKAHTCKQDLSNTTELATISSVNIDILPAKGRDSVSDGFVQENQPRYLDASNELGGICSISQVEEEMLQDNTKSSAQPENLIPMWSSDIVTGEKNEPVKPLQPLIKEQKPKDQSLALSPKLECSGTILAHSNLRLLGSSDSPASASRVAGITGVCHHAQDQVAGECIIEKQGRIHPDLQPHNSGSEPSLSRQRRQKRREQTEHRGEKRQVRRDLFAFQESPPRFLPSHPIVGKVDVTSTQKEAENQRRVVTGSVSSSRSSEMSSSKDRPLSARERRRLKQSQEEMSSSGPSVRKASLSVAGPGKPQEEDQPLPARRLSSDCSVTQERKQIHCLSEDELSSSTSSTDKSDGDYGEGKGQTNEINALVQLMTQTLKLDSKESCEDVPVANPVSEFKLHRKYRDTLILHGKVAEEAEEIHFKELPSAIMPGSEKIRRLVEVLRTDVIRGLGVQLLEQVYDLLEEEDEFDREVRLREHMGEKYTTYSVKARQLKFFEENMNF

[24] = biological target: NEK6 (human) (UniProt Q9HC98)
[25] = biological target: NEK9 (human) (UniProt Q8TD19)
[26] = biological target: NUAK2 (human) (UniProt Q9H093)
[27] = biological target: PBK (human) (UniProt Q96KB5)
[28] = biological target: PHKG2 (human) (UniProt P15735)
[29] = biological target: PLK1 (human) (UniProt P53350)
[30] = biological target: PLK3 (human) (UniProt Q9H4B4)
PLK3 (human), sequence (Q9H4B4 whole entry, looked up): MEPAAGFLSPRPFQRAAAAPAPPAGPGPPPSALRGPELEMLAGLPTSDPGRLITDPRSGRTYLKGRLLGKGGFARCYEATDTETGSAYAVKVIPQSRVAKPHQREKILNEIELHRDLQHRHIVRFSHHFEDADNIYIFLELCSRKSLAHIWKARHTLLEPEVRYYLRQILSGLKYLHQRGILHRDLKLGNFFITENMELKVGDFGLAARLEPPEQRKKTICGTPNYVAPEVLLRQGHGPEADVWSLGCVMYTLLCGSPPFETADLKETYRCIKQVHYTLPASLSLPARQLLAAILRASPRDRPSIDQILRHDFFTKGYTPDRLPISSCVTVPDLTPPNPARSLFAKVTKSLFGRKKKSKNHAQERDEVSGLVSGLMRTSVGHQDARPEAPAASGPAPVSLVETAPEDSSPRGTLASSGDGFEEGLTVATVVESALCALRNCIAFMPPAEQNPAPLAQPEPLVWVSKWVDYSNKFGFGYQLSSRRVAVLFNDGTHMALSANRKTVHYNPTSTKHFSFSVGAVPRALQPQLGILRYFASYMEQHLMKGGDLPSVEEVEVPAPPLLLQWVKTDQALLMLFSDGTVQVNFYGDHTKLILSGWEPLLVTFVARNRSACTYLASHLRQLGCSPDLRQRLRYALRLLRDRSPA

[31] = biological target: PRKCB2 (human) (UniProt P05771)
[32] = biological target: PRKCI (human) (UniProt P41743)
[33] = biological target: PRKD3 (human) (UniProt O94806)
PRKD3 (human), sequence (O94806 whole entry, looked up): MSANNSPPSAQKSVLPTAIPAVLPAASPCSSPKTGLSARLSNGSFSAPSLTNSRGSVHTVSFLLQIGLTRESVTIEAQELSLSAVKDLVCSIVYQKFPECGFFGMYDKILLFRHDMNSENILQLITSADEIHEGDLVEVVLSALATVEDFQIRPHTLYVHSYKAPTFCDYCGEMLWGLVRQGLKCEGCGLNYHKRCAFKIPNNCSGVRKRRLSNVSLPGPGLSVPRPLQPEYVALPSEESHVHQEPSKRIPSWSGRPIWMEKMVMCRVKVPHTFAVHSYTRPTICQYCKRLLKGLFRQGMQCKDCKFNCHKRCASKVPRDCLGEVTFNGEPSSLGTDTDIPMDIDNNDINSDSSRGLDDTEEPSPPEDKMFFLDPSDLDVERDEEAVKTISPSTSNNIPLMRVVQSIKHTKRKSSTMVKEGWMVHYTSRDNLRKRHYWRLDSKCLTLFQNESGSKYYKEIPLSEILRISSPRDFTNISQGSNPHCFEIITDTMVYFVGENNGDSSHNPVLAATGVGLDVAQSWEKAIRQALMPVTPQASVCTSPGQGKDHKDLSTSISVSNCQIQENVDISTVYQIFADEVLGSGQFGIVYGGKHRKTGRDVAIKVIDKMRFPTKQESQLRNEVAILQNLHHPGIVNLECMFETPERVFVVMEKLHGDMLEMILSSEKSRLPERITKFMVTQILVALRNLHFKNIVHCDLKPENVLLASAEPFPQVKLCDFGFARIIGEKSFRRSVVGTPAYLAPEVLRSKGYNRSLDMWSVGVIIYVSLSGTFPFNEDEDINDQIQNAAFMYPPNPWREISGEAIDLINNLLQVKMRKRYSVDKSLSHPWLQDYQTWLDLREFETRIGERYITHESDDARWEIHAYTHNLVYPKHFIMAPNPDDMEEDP

[34] = biological target: PRKG2 (human) (UniProt Q13237)
[35] = biological target: PTK2 (human) (UniProt Q05397)
[36] = biological target: RPS6KA1 KD1 KD2 (human) (UniProt Q15418)
[37] = biological target: RPS6KA3 KD1 KD2 (human) (UniProt P51812)
[38] = biological target: SGK3 (human) (UniProt Q96BR1)
[39] = biological target: SRMS (human) (UniProt Q9H3Y6)
[40] = biological target: STK3 (human) (UniProt Q13188)
[41] = biological target: SYK (human) (UniProt P43405)
[42] = biological target: TAOK2 (human) (UniProt Q9UL54)

**Q.** With `O=c1c2ccccc2[nH]c(=S)n1CCN1CCC(=C(c2ccc(F)cc2)c2ccc(F)cc2)CC1` as the compound, how does the residual activity [1] read?
**A.** Its residual activity is 107%.

**Q.** And the residual activity [2]?
**A.** Its residual activity is 100%.

**Q.** And the residual activity [3]?
**A.** The residual activity was 105%.

**Q.** What about the residual activity [4] of the same compound?
**A.** Its residual activity is 110%.

**Q.** And the residual activity [5]?
**A.** The residual activity was 106%.

**Q.** What about the residual activity [6] of the same compound?
**A.** The residual activity was 99%.

**Q.** And the residual activity [7]?
**A.** The residual activity was 113%.

**Q.** What about the residual activity [8] of the same compound?
**A.** Its residual activity is 92.5%.

**Q.** And the residual activity [9]?
**A.** Its residual activity is 97.6%.

**Q.** What about the residual activity [10] of the same compound?
**A.** Its residual activity is 108%.

**Q.** What about the residual activity [11] of the same compound?
**A.** Its residual activity is 95.4%.

**Q.** And the residual activity [12]?
**A.** The residual activity was 87.4%.

**Q.** And the residual activity [13]?
**A.** The residual activity was 101%.

**Q.** And the residual activity [14]?
**A.** Its residual activity is 107%.

**Q.** What about the residual activity [15] of the same compound?
**A.** The residual activity was 107%.

**Q.** And the residual activity [16]?
**A.** Its residual activity is 97.1%.

**Q.** What about the residual activity [17] of the same compound?
**A.** Its residual activity is 98.4%.

**Q.** What about the residual activity [18] of the same compound?
**A.** The residual activity was 105% and 108%.

**Q.** What about the residual activity [19] of the same compound?
**A.** Its residual activity is 103%.

**Q.** And the residual activity [20]?
**A.** The residual activity was 76.2%.

**Q.** What about the residual activity [21] of the same compound?
**A.** Its residual activity is 97%.

**Q.** What about the residual activity [22] of the same compound?
**A.** Its residual activity is 99.9%.

**Q.** And the residual activity [23]?
**A.** The residual activity was 99.1%.

**Q.** What about the residual activity [24] of the same compound?
**A.** The residual activity was 96.2%.

**Q.** What about the residual activity [25] of the same compound?
**A.** The residual activity was 97%.

**Q.** What about the residual activity [26] of the same compound?
**A.** The residual activity was 106%.

**Q.** And the residual activity [27]?
**A.** Its residual activity is 107%.

**Q.** And the residual activity [28]?
**A.** Its residual activity is 100%.

**Q.** What about the residual activity [29] of the same compound?
**A.** Its residual activity is 100%.

**Q.** And the residual activity [30]?
**A.** The residual activity was 96.2%.

**Q.** What about the residual activity [31] of the same compound?
**A.** Its residual activity is 98.2%.

**Q.** And the residual activity [32]?
**A.** The residual activity was 96.3%.

**Q.** And the residual activity [33]?
**A.** Its residual activity is 101%.

**Q.** What about the residual activity [34] of the same compound?
**A.** Its residual activity is 104%.

**Q.** And the residual activity [35]?
**A.** Its residual activity is 105%.

**Q.** What about the residual activity [36] of the same compound?
**A.** The residual activity was 97.9%.

**Q.** And the residual activity [37]?
**A.** The residual activity was 99.8%.

**Q.** What about the residual activity [38] of the same compound?
**A.** The residual activity was 114%.

**Q.** What about the residual activity [39] of the same compound?
**A.** The residual activity was 96.7%.

**Q.** And the residual activity [40]?
**A.** The residual activity was 102%.

**Q.** And the residual activity [41]?
**A.** Its residual activity is 93.2%.

**Q.** And the residual activity [42]?
**A.** The residual activity was 109%.

**Q.** With `COc1cc2c(N3CCN(C(=O)Nc4ccc(OC(C)C)cc4)CC3)ncnc2cc1OCCCN1CCCCC1` as the compound, how does the residual activity [1] read?
**A.** The residual activity was 145%.

**Q.** And the residual activity [2]?
**A.** Its residual activity is 98%.

**Q.** What about the residual activity [3] of the same compound?
**A.** Its residual activity is 102%.

**Q.** And the residual activity [4]?
**A.** The residual activity was 90.3%.

**Q.** What about the residual activity [5] of the same compound?
**A.** Its residual activity is 100%.

**Q.** What about the residual activity [6] of the same compound?
**A.** The residual activity was 104%.

**Q.** What about the residual activity [7] of the same compound?
**A.** The residual activity was 72.4%.

**Q.** What about the residual activity [8] of the same compound?
**A.** Its residual activity is 98%.

**Q.** And the residual activity [9]?
**A.** Its residual activity is 102%.

**Q.** And the residual activity [10]?
**A.** Its residual activity is 101%.

**Q.** And the residual activity [11]?
**A.** The residual activity was 107%.

**Q.** And the residual activity [12]?
**A.** Its residual activity is 97.3%.

**Q.** And the residual activity [13]?
**A.** Its residual activity is 99.8%.

**Q.** What about the residual activity [14] of the same compound?
**A.** The residual activity was 106%.

**Q.** And the residual activity [15]?
**A.** Its residual activity is 98.9%.

**Q.** And the residual activity [16]?
**A.** The residual activity was 99%.

**Q.** What about the residual activity [17] of the same compound?
**A.** Its residual activity is 88.6%.

**Q.** What about the residual activity [18] of the same compound?
**A.** Its residual activity is 103% and 95.6%.

**Q.** And the residual activity [19]?
**A.** Its residual activity is 91.8%.

**Q.** And the residual activity [20]?
**A.** The residual activity was 94.6%.

**Q.** And the residual activity [21]?
**A.** The residual activity was 103%.

**Q.** And the residual activity [22]?
**A.** Its residual activity is 101%.

**Q.** And the residual activity [23]?
**A.** The residual activity was 90.3%.

**Q.** What about the residual activity [24] of the same compound?
**A.** Its residual activity is 87.4%.

**Q.** What about the residual activity [25] of the same compound?
**A.** Its residual activity is 97.2%.

**Q.** And the residual activity [26]?
**A.** Its residual activity is 100%.

**Q.** What about the residual activity [27] of the same compound?
**A.** The residual activity was 98%.

**Q.** And the residual activity [28]?
**A.** The residual activity was 98.9%.

**Q.** What about the residual activity [29] of the same compound?
**A.** Its residual activity is 101%.

**Q.** What about the residual activity [30] of the same compound?
**A.** Its residual activity is 99.3%.

**Q.** What about the residual activity [31] of the same compound?
**A.** Its residual activity is 93.1%.

**Q.** And the residual activity [32]?
**A.** Its residual activity is 96.2%.

**Q.** What about the residual activity [33] of the same compound?
**A.** The residual activity was 97.3%.

**Q.** And the residual activity [34]?
**A.** The residual activity was 105%.

**Q.** And the residual activity [35]?
**A.** The residual activity was 101%.

**Q.** What about the residual activity [36] of the same compound?
**A.** The residual activity was 94.8%.

**Q.** And the residual activity [37]?
**A.** Its residual activity is 96.6%.

**Q.** What about the residual activity [38] of the same compound?
**A.** The residual activity was 102%.

**Q.** And the residual activity [39]?
**A.** Its residual activity is 95.8%.

**Q.** And the residual activity [40]?
**A.** Its residual activity is 94.7%.

**Q.** And the residual activity [41]?
**A.** The residual activity was 102%.

**Q.** What about the residual activity [42] of the same compound?
**A.** Its residual activity is 102%.

**Q.** What does the source list for `COc1cc2c(Nc3ccc(Br)cc3F)ncnc2cc1OCC1CCN(C)CC1`?
**A.** residual activity [1]: 208%; residual activity [2]: 92.2%; residual activity [3]: 17.6%; residual activity [4]: 90.4%; residual activity [5]: 98%; residual activity [6]: 101%; residual activity [7]: 105%; residual activity [8]: 100%; residual activity [9]: 68%; residual activity [10]: 94.6%; residual activity [11]: 97.2%; residual activity [12]: 45.6%; residual activity [13]: 38.4%; residual activity [14]: 102%; residual activity [15]: 96.7%; residual activity [16]: 101%; residual activity [17]: 88.1%; residual activity [18]: 10.8% and 16.7%; residual activity [19]: 93.9%; residual activity [20]: 96.9%; residual activity [21]: 96.4%; residual activity [22]: 97.1%; residual activity [23]: 102%; residual activity [24]: 96.9%; residual activity [25]: 101%; residual activity [26]: 100%; residual activity [27]: 98.9%; residual activity [28]: 99.1%; residual activity [29]: 98.5%; residual activity [30]: 95%; residual activity [31]: 91.6%; residual activity [32]: 88.1%; residual activity [33]: 91.7%; residual activity [34]: 101%; residual activity [35]: 100%; residual activity [36]: 102%; residual activity [37]: 97.8%; residual activity [38]: 97.9%; residual activity [39]: 98.8%; residual activity [40]: 97.5%; residual activity [41]: 101%; residual activity [42]: 104%
